Results on 24 compounds are retold here after ChEMBL document CHEMBL4184145, “Synthesis and structure-activity relationship of teixobactin analogues via convergent Ser ligation” (2017).

Test [1] concerns Staphylococcus aureus. The experiment in a line: Antibacterial activity against methicillin-susceptible Staphylococcus aureus ATCC 29213 by broth dilution assay. In kind it is functional. (Dilution methods test growth across graded concentrations, often in twofold steps.)
Test [2] has as its system Staphylococcus aureus. The experiment in a line: Antibacterial activity against methicillin-resistant Staphylococcus aureus clinical isolate SA86 by broth dilution assay. Format: functional.

Broadly, the MIC is the lowest concentration that inhibits growth of the organism. The low end stands for inhibition by little substance, the high end for a need for much substance.

The structures appear in SMILES notation. ≈ marks a conversion by molar mass, not a printed value.

Regarding `CC[C@@H](C)[C@@H](NC(=O)[C@@H](CCC(N)=O)NC(=O)[C@H](CO)NC(=O)[C@@H](NC(=O)[C@@H](Cc1ccccc1)NC)[C@@H](C)CC)C(=O)N[C@H](C(=O)N[C@@H](CO)C(=O)N[C@H]1C(=O)N[C@@H](C)C(=O)N[C@@H](CCCN)C(=O)N[C@@H]([C@@H](C)CC)C(=O)O[C@H]1C)[C@@H](C)CC`, the minimal inhibitory concentration (MIC) against Staphylococcus aureus [1] and with Staphylococcus aureus [2] was 2 µg/mL (≈ 1.66 µM) each time.

`CC[C@@H](C)[C@@H](NC(=O)[C@@H](CC(N)=O)NC(=O)[C@H](CO)NC(=O)[C@@H](NC(=O)[C@@H](Cc1ccccc1)NC)[C@@H](C)CC)C(=O)N[C@H](C(=O)N[C@@H](CO)C(=O)N[C@H]1C(=O)N[C@@H](C)C(=O)N[C@@H](CCCN)C(=O)N[C@@H]([C@@H](C)CC)C(=O)O[C@H]1C)[C@@H](C)CC`: the MIC in the test with Staphylococcus aureus [1] and in the test on Staphylococcus aureus [2] was 4 µg/mL (≈ 3.37 µM) in each case.

As for `CC[C@@H](C)[C@@H](NC(=O)[C@@H](CCC(N)=O)NC(=O)[C@H](CCCCN)NC(=O)[C@@H](NC(=O)[C@@H](Cc1ccccc1)NC)[C@@H](C)CC)C(=O)N[C@H](C(=O)N[C@@H](CO)C(=O)N[C@H]1C(=O)N[C@@H](C)C(=O)N[C@@H](CCCN)C(=O)N[C@@H]([C@@H](C)CC)C(=O)O[C@H]1C)[C@@H](C)CC`, the MIC with Staphylococcus aureus [1] amounted to 4 µg/mL (≈ 3.22 µM); in the test on Staphylococcus aureus [2], 8 µg/mL (≈ 6.43 µM).

Take `CC[C@@H](C)[C@@H](NC(=O)[C@@H](CCC(N)=O)NC(=O)[C@H](CO)NC(=O)[C@@H](NC(=O)[C@@H](Cc1ccccc1)NC)[C@@H](C)O)C(=O)N[C@H](C(=O)N[C@@H](CO)C(=O)N[C@H]1C(=O)N[C@@H](C)C(=O)N[C@@H](CCCN)C(=O)N[C@@H]([C@@H](C)CC)C(=O)O[C@H]1C)[C@@H](C)CC`: the MIC against Staphylococcus aureus [1] and in the test on Staphylococcus aureus [2] was not below 32 µg/mL each time.

Take `CC[C@@H](C)[C@@H](NC(=O)[C@@H](CCC(N)=O)NC(=O)[C@H](CO)NC(=O)[C@@H](NC(=O)[C@@H](Cc1ccccc1)NC)C(C)C)C(=O)N[C@H](C(=O)N[C@@H](CO)C(=O)N[C@H]1C(=O)N[C@@H](C)C(=O)N[C@@H](CCCN)C(=O)N[C@@H]([C@@H](C)CC)C(=O)O[C@H]1C)[C@@H](C)CC`: the minimal inhibitory concentration (MIC) against Staphylococcus aureus [1] is 8 µg/mL (≈ 6.73 µM); against Staphylococcus aureus [2] it was 8 to 16 µg/mL (≈ 6.73 to 13.5 µM).

In the case of `CC[C@@H](C)[C@@H](NC(=O)[C@@H](CCC(N)=O)NC(=O)[C@H](CO)NC(=O)[C@@H](NC(=O)[C@@H](C)NC)[C@@H](C)CC)C(=O)N[C@H](C(=O)N[C@@H](CO)C(=O)N[C@H]1C(=O)N[C@@H](C)C(=O)N[C@@H](CCCN)C(=O)N[C@@H]([C@@H](C)CC)C(=O)O[C@H]1C)[C@@H](C)CC`, the MIC against Staphylococcus aureus [1] and against Staphylococcus aureus [2] was not below 32 µg/mL each time.

As for `CC[C@H](C)[C@H](NC(=O)[C@@H](C)NC(=O)[C@@H](CCC(N)=O)NC(=O)[C@H](CO)NC(=O)[C@@H](NC(=O)[C@@H](Cc1ccccc1)NC)[C@@H](C)CC)C(=O)N[C@@H](CO)C(=O)N[C@H]1C(=O)N[C@@H](C)C(=O)N[C@@H](CCCN)C(=O)N[C@@H]([C@@H](C)CC)C(=O)O[C@H]1C`, the MIC against Staphylococcus aureus [1] and against Staphylococcus aureus [2] was not below 32 µg/mL in each case.

Regarding `CC[C@@H](C)[C@@H](NC(=O)[C@@H](CCC(N)=O)NC(=O)[C@H](CO)NC(=O)[C@@H](NC(=O)[C@H](Cc1ccccc1)NC)[C@@H](C)CC)C(=O)N[C@H](C(=O)N[C@@H](CO)C(=O)N[C@H]1C(=O)N[C@@H](C)C(=O)N[C@@H](CCCN)C(=O)N[C@@H]([C@@H](C)CC)C(=O)O[C@H]1C)[C@@H](C)CC`, the MIC with Staphylococcus aureus [1] and against Staphylococcus aureus [2] was not below 32 µg/mL each time.

For the compound `CC[C@@H](C)[C@@H](NC(=O)[C@H](CCC(N)=O)NC(=O)[C@H](CO)NC(=O)[C@@H](NC(=O)[C@@H](Cc1ccccc1)NC)[C@@H](C)CC)C(=O)N[C@H](C(=O)N[C@@H](CO)C(=O)N[C@H]1C(=O)N[C@@H](C)C(=O)N[C@@H](CCCN)C(=O)N[C@@H]([C@@H](C)CC)C(=O)O[C@H]1C)[C@@H](C)CC`, the MIC in the test with Staphylococcus aureus [1] and against Staphylococcus aureus [2] was not below 32 µg/mL in each case.

Regarding `CC[C@@H](C)[C@@H](NC(=O)[C@@H](CCC(N)=O)NC(=O)[C@H](CO)NC(=O)[C@@H](NC(=O)[C@@H](Cc1ccccc1)NC)[C@@H](C)CC)C(=O)N[C@@H](Cc1ccccc1)C(=O)N[C@@H](CO)C(=O)N[C@H]1C(=O)N[C@@H](C)C(=O)N[C@@H](CCCN)C(=O)N[C@@H]([C@@H](C)CC)C(=O)O[C@H]1C`, the MIC in the test on Staphylococcus aureus [1] and against Staphylococcus aureus [2] was not below 32 µg/mL throughout.

`CC[C@@H](C)[C@@H](NC(=O)[C@@H](CCC(N)=O)NC(=O)[C@H](C)NC(=O)[C@@H](NC(=O)[C@@H](Cc1ccccc1)NC)[C@@H](C)CC)C(=O)N[C@H](C(=O)N[C@@H](CO)C(=O)N[C@H]1C(=O)N[C@@H](C)C(=O)N[C@@H](CCCN)C(=O)N[C@@H]([C@@H](C)CC)C(=O)O[C@H]1C)[C@@H](C)CC`: the MIC with Staphylococcus aureus [1] and against Staphylococcus aureus [2] was 4 µg/mL (≈ 3.37 µM) each time.

Turning to `CC[C@@H](C)[C@@H](NC(=O)[C@@H](CCC(N)=O)NC(=O)[C@H](CO)NC(=O)[C@@H](NC(=O)[C@@H](Cc1ccccc1)NC)[C@@H](C)CC)C(=O)N[C@H](C(=O)N[C@@H](CO)C(=O)N[C@H]1C(=O)NCC(=O)N[C@@H](CCCN)C(=O)N[C@@H]([C@@H](C)CC)C(=O)O[C@H]1C)[C@@H](C)CC`, the MIC against Staphylococcus aureus [1] and against Staphylococcus aureus [2] was not below 32 µg/mL throughout.

Regarding `CC[C@@H](C)[C@@H](NC(=O)[C@@H](CCC(N)=O)NC(=O)[C@H](CO)NC(=O)[C@H](NC(=O)[C@@H](Cc1ccccc1)NC)[C@@H](C)CC)C(=O)N[C@H](C(=O)N[C@@H](CO)C(=O)N[C@H]1C(=O)N[C@@H](C)C(=O)N[C@@H](CCCN)C(=O)N[C@@H]([C@@H](C)CC)C(=O)O[C@H]1C)[C@@H](C)CC`, the MIC against Staphylococcus aureus [1] and against Staphylococcus aureus [2] was not below 32 µg/mL throughout.

With `CC[C@H](C)[C@H](NC(=O)[C@@H](Cc1ccccc1)NC)C(=O)N[C@@H](CO)C(=O)N[C@H](CCC(N)=O)C(=O)N[C@@H](C(=O)N[C@H](C(=O)N[C@@H](CO)C(=O)N[C@H]1C(=O)N[C@@H](C)C(=O)N[C@@H](CCCN)C(=O)N[C@@H]([C@@H](C)CC)C(=O)O[C@H]1C)[C@@H](C)CC)C(C)C`, the MIC against Staphylococcus aureus [1] is 8 to 16 µg/mL (≈ 6.73 to 13.5 µM); against Staphylococcus aureus [2], 16 µg/mL (≈ 13.5 µM).

Consider `CC[C@@H](C)[C@@H](NC(=O)[C@@H](CCC(N)=O)NC(=O)[C@H](CO)NC(=O)[C@@H](NC(=O)[C@H](N)Cc1ccccc1)[C@@H](C)CC)C(=O)N[C@H](C(=O)N[C@@H](CO)C(=O)N[C@H]1C(=O)N[C@@H](C)C(=O)N[C@@H](CCCN)C(=O)N[C@@H]([C@@H](C)CC)C(=O)O[C@H]1C)[C@@H](C)CC`, for which the MIC in the test with Staphylococcus aureus [1] and against Staphylococcus aureus [2] was 16 µg/mL (≈ 13.5 µM) each time.

For the compound `CC[C@@H](C)[C@@H](NC(=O)[C@@H](CCC(N)=O)NC(=O)[C@H](CO)NC(=O)[C@@H](NC(=O)[C@@H](Cc1ccccc1)NC)[C@@H](C)CC)C(=O)N[C@@H](CC(C)C)C(=O)N[C@@H](CO)C(=O)N[C@H]1C(=O)N[C@@H](C)C(=O)N[C@@H](CCCN)C(=O)N[C@@H]([C@@H](C)CC)C(=O)O[C@H]1C`, the MIC in the test with Staphylococcus aureus [1] and in the test with Staphylococcus aureus [2] was not below 32 µg/mL throughout.

With `CC[C@@H](C)[C@@H](NC(=O)[C@@H](CCC(N)=O)NC(=O)[C@H](CO)NC(=O)[C@@H](NC(=O)[C@@H](Cc1ccccc1)NC)[C@@H](C)CC)C(=O)N[C@@H](C)C(=O)N[C@@H](CO)C(=O)N[C@H]1C(=O)N[C@@H](C)C(=O)N[C@@H](CCCN)C(=O)N[C@@H]([C@@H](C)CC)C(=O)O[C@H]1C`, the MIC with Staphylococcus aureus [1] and against Staphylococcus aureus [2] was not below 32 µg/mL throughout.

In the case of `CC[C@@H](C)[C@@H](NC(=O)[C@@H](CCC(N)=O)NC(=O)[C@H](CO)NC(=O)[C@@H](NC(=O)[C@@H](Cc1ccccc1)NC)[C@@H](C)CC)C(=O)N[C@H](C(=O)N[C@@H](CO)C(=O)N[C@H]1C(=O)N[C@H](C)C(=O)N[C@@H](CCCN)C(=O)N[C@@H]([C@@H](C)CC)C(=O)O[C@H]1C)[C@@H](C)CC`, the MIC in the test on Staphylococcus aureus [1] and against Staphylococcus aureus [2] was not below 32 µg/mL each time.

In the case of `CC[C@@H](C)[C@@H](NC(=O)[C@@H](CCC(N)=O)NC(=O)[C@H](CC(N)=O)NC(=O)[C@@H](NC(=O)[C@@H](Cc1ccccc1)NC)[C@@H](C)CC)C(=O)N[C@H](C(=O)N[C@@H](CO)C(=O)N[C@H]1C(=O)N[C@@H](C)C(=O)N[C@@H](CCCN)C(=O)N[C@@H]([C@@H](C)CC)C(=O)O[C@H]1C)[C@@H](C)CC`, the MIC was 16 µg/mL (≈ 13 µM) with Staphylococcus aureus [1] and not below 32 µg/mL against Staphylococcus aureus [2].

For the compound `CC[C@@H](C)[C@@H](NC(=O)[C@@H](CCC(N)=O)NC(=O)[C@H](CO)NC(=O)[C@@H](NC(=O)[C@@H](Cc1ccccc1)NC)[C@@H](C)CC)C(=O)N[C@H](C(=O)N[C@@H](CO)C(=O)N[C@H]1C(=O)N[C@@H](C)C(=O)N[C@@H](CCCN)C(=O)N[C@@H]([C@@H](C)CC)C(=O)O[C@H]1C)C(C)C`, the MIC with Staphylococcus aureus [1] and against Staphylococcus aureus [2] was not below 32 µg/mL in each case.

With `CC[C@@H](C)[C@@H](NC(=O)[C@@H](CCC(N)=O)NC(=O)[C@H](CO)NC(=O)[C@H](Cc1ccccc1)NC(=O)[C@@H](Cc1ccccc1)NC)C(=O)N[C@H](C(=O)N[C@@H](CO)C(=O)N[C@H]1C(=O)N[C@@H](C)C(=O)N[C@@H](CCCN)C(=O)N[C@@H]([C@@H](C)CC)C(=O)O[C@H]1C)[C@@H](C)CC`, the MIC with Staphylococcus aureus [1] and against Staphylococcus aureus [2] was not below 32 µg/mL each time.

As for `CC[C@@H](C)[C@@H](NC(=O)[C@@H](CCC(N)=O)NC(=O)[C@H](CO)NC(=O)[C@H](CC(C)C)NC(=O)[C@@H](Cc1ccccc1)NC)C(=O)N[C@H](C(=O)N[C@@H](CO)C(=O)N[C@H]1C(=O)N[C@@H](C)C(=O)N[C@@H](CCCN)C(=O)N[C@@H]([C@@H](C)CC)C(=O)O[C@H]1C)[C@@H](C)CC`, the MIC against Staphylococcus aureus [1] and in the test on Staphylococcus aureus [2] was 4 to 8 µg/mL (≈ 3.33 to 6.65 µM) in each case.

On to `CC[C@@H](C)[C@@H](NC(=O)[C@@H](CCC(N)=O)NC(=O)[C@H](CO)NC(=O)[C@@H](NC(=O)[C@@H](Cc1ccccc1)NC)[C@@H](C)CC)C(=O)N[C@H](C(=O)N[C@@H](CO)C(=O)N[C@H]1C(=O)N[C@@H](C)C(=O)N[C@@H](CCNC(=N)N)C(=O)N[C@@H]([C@@H](C)CC)C(=O)O[C@H]1C)[C@@H](C)CC`, for which the MIC is 8 to 16 µg/mL (≈ 6.5 to 13 µM) against Staphylococcus aureus [1] and 16 µg/mL (≈ 13 µM) in the test on Staphylococcus aureus [2].

On to `CC[C@@H](C)[C@@H](NC(=O)[C@@H](CCC(N)=O)NC(=O)[C@H](CO)NC(=O)[C@H](C)NC(=O)[C@@H](Cc1ccccc1)NC)C(=O)N[C@H](C(=O)N[C@@H](CO)C(=O)N[C@H]1C(=O)N[C@@H](C)C(=O)N[C@@H](CCCN)C(=O)N[C@@H]([C@@H](C)CC)C(=O)O[C@H]1C)[C@@H](C)CC`, for which the MIC against Staphylococcus aureus [1] and in the test with Staphylococcus aureus [2] was not below 32 µg/mL each time.
